From patent US11186554B2, “Non-fused tricyclic compounds” (VIVACE THERAPEUTICS, INC., priority 2017, dated 2021)

test system: firefly luciferase activity; experiment: Dual-Glo firefly/renilla luciferase reporter assay in cells; assay type: cell-based; details: 24 h, read-out: Firefly Luciferase IC50 (μM)

| Compound | IC50 |
| --- | --- |
| OCCn1nnc(-c2cc(OC(F)(F)F)ccc2Nc2ccc(C(F)(F)F)cc2)n1 [Compound 261, 2-(5-(5-(trifluoromethoxy)-2-((4-(trifluoromethyl)phenyl)amino)phenyl)-2H-tetrazol-2-yl)ethanol] | 0.1 to 1 µM |
| COc1ccc(Nc2ccccc2-c2nnn(CCO)n2)cc1 [Compound 12, 2-[5-[2-(4-methoxyanilino)phenyl]tetrazol-2-yl]ethanol] | 0.1 to 1 µM |
| CCc1cccc(Nc2ccccc2-c2nnn(CCO)n2)c1 [Compound 17, 2-[5-[2-(3-ethylanilino)phenyl]tetrazol-2-yl]ethanol] | 0.1 to 1 µM |
| O=C(Cn1nnc(-c2ccccc2Nc2ccc(C(F)(F)F)cc2)n1)NO [Compound 113, 2-[5-[2-[4-(trifluoromethyl)anilino]phenyl]tetrazol-2-yl]ethanehydroxamic acid] | 0.1 to 1 µM |
| OCCn1nnc(-c2ccccc2Nc2cccc(F)c2)n1 [Compound 10, 2-(5-(2-((3-fluorophenyl)amino)phenyl)-2H-tetrazol-2-yl)ethanol] | 0.1 to 1 µM |
| OCCn1nnc(-c2ccccc2Nc2ccc(OC(F)(F)F)cc2)n1 [Compound 11, 2-(5-(2-((4-(Trifluoromethoxy)phenyl)amino)phenyl)-2H-tetrazol-2-yl)ethanol] | < 0.1 µM |
| COc1ccc(-c2nnn(CCO)n2)c(Nc2ccc(C(F)(F)F)cc2)c1 [Compound 241, 2-[5-[4-methoxy-2-[4-(trifluoromethyl)anilino]phenyl]tetrazol-2-yl]ethanol] | < 0.1 µM |
| CN(C)C(=O)Cn1nnc(-c2ccccc2Nc2ccc(C(F)(F)F)cc2)n1 [Compound 43, N,N-dimethyl-2-[5-[2-[4-(trifluoromethyl)anilino]phenyl]tetrazol-2-yl]acetamide] | 0.1 to 1 µM |
| CN(C)CCn1nnc(-c2ccccc2Nc2ccc(C(F)(F)F)cc2)n1 [Compound 50, 2-[2-[2-(dimethylamino)ethyl]tetrazol-5-yl]-N-[4-(trifluoromethyl)phenyl]aniline] | 0.1 to 1 µM |
| Cc1ccc(-c2nnn(CCO)n2)c(Nc2ccc(C(F)(F)F)cc2)c1 [Compound 243, 2-(5-(4-methyl-2-((4-(trifluoromethyl)phenyl)amino)phenyl)-2H-tetrazol-2-yl)ethanol] | < 0.1 µM |
| OCCn1nnc(-c2cc(Cl)ccc2Nc2ccc(C(F)(F)F)cc2)n1 [Compound 238, 2-(5-(5-chloro-2-((4-(trifluoromethyl)phenyl)amino)phenyl)-2H-tetrazol-2-yl)ethanol] | < 0.1 µM |

same assay, conditions: 24 hrs compound treatment, starting from 3 uM, 1:3 dilution, 10 points; read-out: Firefly Luciferase IC50

| Compound | IC50 |
| --- | --- |
| CO[C@@H](C)[C@H](C)n1nnc(-c2ccccc2Nc2ccc(C(F)(F)F)cc2)n1 [Compound 210, 2-(2-((2S,3S)-3-methoxybutan-2-yl)-2H-tetrazol-5-yl)-N-(4-(trifluoromethyl)phenyl)aniline] | < 0.1 µM |
| COC1CCCC1n1nnc(-c2ccccc2Nc2ccc(C(F)(F)F)cc2)n1 (centres unmarked) [Compound 214, 2-(2-(2-methoxycyclopentyl)-2H-tetrazol-5-yl)-N-(4-(trifluoromethyl)phenyl) Aniline] | 0.1 to 1 µM |
| OC(Cn1nnc(-c2ccccc2Nc2ccc(C(F)(F)F)cc2)n1)C(F)(F)F (centres unmarked) [Compound 131, 1,1,1-trifluoro-3-[5-[2-[4-(trifluoromethyl)anilino]phenyl]tetrazol-2-yl]propan-2-ol] | < 0.1 µM |
| OCC(CO)n1nnc(-c2ccccc2Nc2ccc(C(F)(F)F)cc2)n1 [Compound 264, 2-(5-(2-((4-(trifluoromethyl)phenyl)amino)phenyl)-2H-tetrazol-2-yl)propane-1,3-diol] | < 0.1 µM |
| C[C@H](c1ccccc1)N1C(=O)OC[C@H]1Cn1nnc(-c2ccccc2Nc2ccc(C(F)(F)F)cc2)n1 [Compound 132, (4R)-3-[(1R)-1-phenylethyl]-4-[[5-[2-[4-(trifluoromethyl)anilino]phenyl]tetrazol-2-yl]methyl]oxazolidin-2-one] | 0.1 to 1 µM |
| CN(C)CCCn1nnc(-c2ccccc2Nc2ccc(C(F)(F)F)cc2)n1 [Compound 62, 2-(2-(3-(dimethylamino)propyl)-2H-tetrazol-5-yl)-N-(4-(trifluoromethyl)phenyl) Aniline] | 1 to 5 µM |
| NC(=O)OCCn1nnc(-c2ccccc2Nc2ccc(C(F)(F)F)cc2)n1 [Compound 124, 2-[5-[2-[4-(trifluoromethyl)anilino]phenyl]tetrazol-2-yl]ethyl carbamate] | < 0.1 µM |
| C[C@H](O)[C@@H](C)n1nnc(-c2ccccc2Nc2ccc(C(F)(F)F)cc2)n1 [Compound 195, (2S,3R)-3-(5-(2-((4-(trifluoromethyl)phenyl)amino)phenyl)-2H-tetrazol-2-yl)butan-2-ol] | < 0.1 µM |
| OC1(Cn2nnc(-c3ccccc3Nc3ccc(C(F)(F)F)cc3)n2)CCNCC1 [Compound 135, 4-[[5-[2-[4-(trifluoromethyl)anilino]phenyl]tetrazol-2-yl]methyl]piperidin-4-ol] | 1 to 5 µM |
| [O-][S+]1CC(O)(Cn2nnc(-c3ccccc3Nc3ccc(C(F)(F)F)cc3)n2)C1 (centres unmarked) [Compound 245, 1-oxo-3-[[5-[2-[4-(trifluoromethyl)anilino]phenyl]tetrazol-2-yl]methyl]thietan-3-ol] | 0.1 to 1 µM |
| O=C1N[C@H](Cn2nnc(-c3ccccc3Nc3ccc(C(F)(F)F)cc3)n2)CO1 [Compound 158, (R)-4-((5-(2-((4-(trifluoromethyl)phenyl)amino)phenyl)-2H-tetrazol-2-yl)methyl)oxazolidin-2-one] | 0.1 to 1 µM |
| OCCn1nnc(-c2ccccc2Nc2ccc(C(F)(F)F)cc2)n1 [Compound 23, 2-(5-(2-((4-(Trifluoromethyl)phenyl)amino)phenyl)-2H-tetrazol-2-yl)ethanol] | < 0.1 µM |
| OC1(Cn2nnc(-c3ccccc3Nc3ccc(C(F)(F)F)cc3)n2)CCCN(c2ccccc2)C1 (centres unmarked) [Compound 176] | 0.1 to 1 µM |
| FC(F)(F)c1ccc(Nc2ccccc2-c2nnn(-c3ccccn3)n2)cc1 [Compound 140, 2-[2-(2-pyridyl)tetrazol-5-yl]-N-[4-(trifluoromethyl)phenyl]aniline] | 0.1 to 1 µM |
| CC(C)(C)OC(=O)N1CCCC(O)(Cn2nnc(-c3ccccc3Nc3ccc(C(F)(F)F)cc3)n2)C1 (centres unmarked) [Compound 147] | 1 to 5 µM |
| Cn1nnc(-c2ccccc2Nc2ccc(C(F)(F)F)cc2)n1 [Compound 171, 2-(2-methyltetrazol-5-yl)-N-[4-(trifluoromethyl)phenyl]aniline] | 0.1 to 1 µM |
| OC(Cn1nnc(-c2ccccc2Nc2ccc(C(F)(F)F)cc2)n1)c1ccccc1 (centres unmarked) [Compound 143, 1-phenyl-2-[5-[2-[4-(trifluoromethyl)anilino]phenyl]tetrazol-2-yl]ethanol] | 1 to 5 µM |

| Compound | IC50 |
| --- | --- |
| OCCn1nnc(-c2ccc(F)cc2Nc2ccc(C(F)(F)F)cc2)n1 [Compound 181, 2-[5-[4-fluoro-2-[4-(trifluoromethyl)anilino]phenyl]tetrazol-2-yl]ethanol] | < 0.1 µM |
| FC(F)(F)OCCn1nnc(-c2ccccc2Nc2ccc(C(F)(F)F)cc2)n1 [Compound 185, 2-(2-(2-(trifluoromethoxy)ethyl)-2H-tetrazol-5-yl)-N-(4-(trifluoromethyl)phenyl)aniline] | 0.1 to 1 µM |
| CC(=O)OC1(Cn2nnc(-c3ccccc3Nc3ccc(C(F)(F)F)cc3)n2)CN(C(C)=O)C1 [Compound 162, [1-acetyl-3-[[5-[2-[4-(trifluoromethyl)anilino]phenyl]tetrazol-2-yl]methyl]azetidin-3-yl]acetate] | 1 to 5 µM |
| NCCCn1nnc(-c2ccccc2Nc2ccc(C(F)(F)F)cc2)n1 [Compound 216, 2-(2-(3-aminopropyl)-2H-tetrazol-5-yl)-N-(4-(trifluoromethyl)phenyl)aniline] | 0.1 to 1 µM |
| COCCn1nnc(-c2ccccc2Nc2cccc(C(F)(F)F)c2)n1 [Compound 5, 2-[2-(2-methoxyethyl)tetrazol-5-yl]-N-[3-(trifluoromethyl)phenyl]aniline] | 1 to 5 µM |
| CCOC(=O)Cn1ncc(-c2ccccc2Nc2cccc(C(F)(F)F)c2)c1C [Compound 90, ethyl 2-(5-methyl-4-(2-((3-(trifluoromethyl)phenyl)amino)phenyl)-1H-pyrazol-1-yl)acetate] | 1 to 5 µM |
| FCCn1nnc(-c2ccccc2Nc2ccc(C(F)(F)F)cc2)n1 [Compound 117, 2-[2-(2-fluoroethyl)tetrazol-5-yl]-N-[4-(trifluoromethyl)phenyl]aniline] | 0.1 to 1 µM |
| FC(F)(F)c1ccc(Nc2ccccc2-c2nnn(-c3cccnc3)n2)cc1 [Compound 165, 2-[2-(3-pyridyl)tetrazol-5-yl]-N-[4-(trifluoromethyl)phenyl]aniline] | 1 to 5 µM |
| O[C@@H]1CNC[C@H]1n1nnc(-c2ccccc2Nc2ccc(C(F)(F)F)cc2)n1 [Compound 233, (3R,4R)-4-(5-(2-((4-(trifluoromethyl)phenyl)amino)phenyl)-2H-tetrazol-2-yl)pyrrolidin-3-ol] | 0.1 to 1 µM |
| OC1(Cn2nnc(-c3ccccc3Nc3ccc(C(F)(F)F)cc3)n2)CNC1 [Compound 157, 3-[[5-[2-[4-(trifluoromethyl)anilino]phenyl]tetrazol-2-yl]methyl]azetidin-3-ol] | 0.1 to 1 µM |
| CC(CO)n1nnc(-c2ccccc2Nc2ccc(C(F)(F)F)cc2)n1 (centres unmarked) [Compound 125, 2-[5-[2-[4-(trifluoromethyl)anilino]phenyl]tetrazol-2-yl]propan-1-ol] | < 0.1 µM |
| OC1(Cn2nnc(-c3ccccc3Nc3ccc(C(F)(F)F)cc3)n2)CCN(c2ccccc2)C1 (centres unmarked) [Compound 172] | 1 to 5 µM |
| FC(F)(F)c1ccc(Nc2ccccc2-c2nnn(C3CCNC3)n2)cc1 (centres unmarked) [Compound 227, 2-(2-(pyrrolidin-3-yl)-2H-tetrazol-5-yl)-N-(4-(trifluoromethyl)phenyl)aniline] | 0.1 to 1 µM |
| OC1(Cn2nnc(-c3ccccc3Nc3ccc(C(F)(F)F)cc3)n2)CCOC1 (centres unmarked) [Compound 151, 3-[[5-[2-[4-(trifluoromethyl)anilino]phenyl]tetrazol-2-yl]methyl]tetrahydro furan-3-ol] | < 0.1 µM |
| FC(F)(F)Oc1ccc(Nc2ccccc2-c2nnn(Cc3ccncc3)n2)cc1 [Compound 53, 2-[2-(4-pyridylmethyl)tetrazol-5-yl]-N-[4-(trifluoromethoxy)phenyl]aniline] | 1 to 5 µM |
| COCC(C)n1nnc(-c2ccccc2Nc2ccc(C(F)(F)F)cc2)n1 (centres unmarked) [Compound 129, 2-(2-(1-methoxypropan-2-yl)-2H-tetrazol-5-yl)-N-(4-(trifluoromethyl)phenyl) Aniline] | < 0.1 µM |
